In US20100261699A1, “N-PYRAZOLE-2-PYRIDINE CARBOXAMIDE DERIVATIVE” (Banyu Pharmaceutical Co., Ltd., priority 2007, published 2010):
Blank lines part the entries; values can stand above or below the compound they belong to.

Target: T1, recombinant human liver GK (Homo sapiens, UniProt P35557)
T1 construct: made in house; host or cells: E. coli
T1 sequence (P35557 1-466 isoform P35557-2): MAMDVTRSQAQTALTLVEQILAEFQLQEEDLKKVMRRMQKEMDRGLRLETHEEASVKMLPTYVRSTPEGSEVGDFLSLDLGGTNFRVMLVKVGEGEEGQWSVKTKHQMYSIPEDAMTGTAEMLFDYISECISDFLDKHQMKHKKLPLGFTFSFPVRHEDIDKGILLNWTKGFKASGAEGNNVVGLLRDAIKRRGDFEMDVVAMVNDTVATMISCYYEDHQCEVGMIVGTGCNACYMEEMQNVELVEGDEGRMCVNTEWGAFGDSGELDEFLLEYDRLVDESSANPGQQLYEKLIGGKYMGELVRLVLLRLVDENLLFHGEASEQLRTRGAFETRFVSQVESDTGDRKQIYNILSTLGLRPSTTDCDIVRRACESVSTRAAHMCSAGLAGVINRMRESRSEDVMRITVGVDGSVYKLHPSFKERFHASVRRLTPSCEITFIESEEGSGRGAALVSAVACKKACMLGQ
Assay: Glucokinase-activating effect (Thio-NADH production via G6PDH-coupled assay)
Type: biochemical
Details: final glucose concentration 2.5 mM, 30° C.; for Emax: OD level of DMSO control taken as 100%
Method: The excellent glucokinase-activating effect of the compound represented by the Formula (I) can be determined by a method described in references (e.g., Diabetes, Vol. 45, pp. 1671-1677, 1996, etc.) or by a method based on the same.
The glucokinase activity is determined not by directly measuring glucose-6-phosphate, but by measuring the level of Thio-NADH produced when a reporter enzyme, glucose-6-phosphate dehydrogenase, produces phosphogluconolactone from glucose-6-phosphate.
A recombinant human liver GK used in this assay was expressed in E. coli as a FLAG fusion protein, and then purified by ANTIFLAG M2 AFFIMTY GEL (Sigma).
The assay was carried out using a flat-bottom 96-well plate at 30° C. First, 69 μl of assay buffer (25 mM Hepes Buffer:pH=7.2, 2 mM MgCl2, 1 mM ATP, 0.5 mM TNAD, 1 mM dithiothreitol) was dispensed, and 1 μl of DMSO solution of the compound or DMSO as a control was added thereto. Subsequently, 20 μl of enzyme mixture (FLAG-GK, 20 U/ml G6PDH) that had been cooled in ice was dispensed, and 10 μl of 25 mM glucose, a substrate, was added thereto to initiate reaction (final glucose concentration=2.5 mM).
After the start of the reaction, an increase in the absorbance at 405 nm was measured for 12 minutes at 30 second intervals, and the increment for the first 5 minutes was used for evaluation of the compound. FLAG-GK was added so that the increment of absorbance in 5 minutes in the presence of 1% DMSO was from 0.04 to 0.06.
Taking the OD level of the DMSO control as 100%, the OD level of the test compound at different concentrations was determined From the OD level at each concentration, Emax (%) and EC50 (μM) were calculated and used as an index of the GK-activating ability of the compound.

SMILES: CN(C)CCOc1ccc(Sc2ccc(Sc3nncn3C)nc2C(=O)Nc2ccn(C)n2)cc1 [Example 1, 3-({4-[2-(dimethylamino)ethoxy]phenyl}thio)-N-(1-methyl-1H-pyrazol-3-yl)-6-[(4-methyl-4H-1,2,4-triazol-3-yl)thio]pyridine-2-carboxamide]
Emax: 890% | EC50: 120 nM

SMILES: CN1CC(Oc2ccc(Sc3ccc(Sc4nncn4C)nc3C(=O)Nc3ccn(C)n3)cc2)C1 [Example 4, 3-({4-[(1-methylazetidin-3-yl)oxy]phenyl}thio)-N-(1-methyl-1H-pyrazol-3-yl)-6-[(4-methyl-4H-1,2,4-triazol-3-yl)thio]pyridine-2-carboxamide]
EC50: 70 nM

SMILES: CCN1CC(Oc2ccc(Sc3ccc(Sc4nncn4C)nc3C(=O)Nc3ccn(C)n3)cc2)C1 [Example 5]
EC50: 120 nM

SMILES: CC(C)N1CC(Oc2ccc(Sc3ccc(Sc4nncn4C)nc3C(=O)Nc3ccn(C)n3)cc2)C1 [Example 6]
EC50: 150 nM

SMILES: CCN1CC(COc2ccc(Sc3ccc(Sc4nncn4C)nc3C(=O)Nc3ccn(C)n3)cc2)C1 [Example 7, 3-({4-[(1-ethylazetidin-3-yl)methoxy]phenyl}thio)-N-(1-methyl-1H-pyrazol-3-yl)-6-[(4-methyl-4H-1,2,4-triazol-3-yl)thio]pyridine-2-carboxamide]
Emax: 930% | EC50: 60 nM

SMILES: CC(C)N1CC(COc2ccc(Sc3ccc(Sc4nncn4C)nc3C(=O)Nc3ccn(C)n3)cc2)C1 [Example 8, 3-({4-[(1-isopropylazetidin-3-yl)methoxy]phenyl}thio)-N-(1-methyl-1H-pyrazol-3-yl)-6-[(4-methyl-4H-1,2,4-triazol-3-yl)thio]pyridine-2-carboxamide]
Emax: 960% | EC50: 80 nM

Continued by falling EC50, values first:

EC50: 200 nM
SMILES: CCN(CC)CCOc1ccc(Sc2ccc(Sc3nncn3C)nc2C(=O)Nc2ccn(C)n2)cc1 [Example 2]

Emax: 880% | EC50: 180 nM
SMILES: CN(C)CCOc1ccc(Sc2ccc(Sc3nncn3C)nc2C(=O)Nc2ccn(C)n2)cn1 [Example 9]

EC50: 80 nM
SMILES: Cn1ccc(NC(=O)c2nc(Sc3nncn3C)ccc2Sc2ccc(OCCN3CCCC3)cc2)n1 [Example 3]
